Source: US20080261994A1, “CYCLOPROPANE COMPOUNDS AND PHARMACEUTICAL USE THEREOF” (Japan Tobacco Inc., priority 2003, published 2008)
Like-named read-outs stand apart in the source and are kept apart here.

Key:
Assay type in all cases: biochemical
aggrecanase-1 = target: T1, aggrecanase-1 (Homo sapiens, UniProt O75173); assay: Aggrecanase-1 inhibitory action (Particle Assay, GAG release from aggrecan-containing polyacrylamide particles)
T1 sequence (O75173 213-837): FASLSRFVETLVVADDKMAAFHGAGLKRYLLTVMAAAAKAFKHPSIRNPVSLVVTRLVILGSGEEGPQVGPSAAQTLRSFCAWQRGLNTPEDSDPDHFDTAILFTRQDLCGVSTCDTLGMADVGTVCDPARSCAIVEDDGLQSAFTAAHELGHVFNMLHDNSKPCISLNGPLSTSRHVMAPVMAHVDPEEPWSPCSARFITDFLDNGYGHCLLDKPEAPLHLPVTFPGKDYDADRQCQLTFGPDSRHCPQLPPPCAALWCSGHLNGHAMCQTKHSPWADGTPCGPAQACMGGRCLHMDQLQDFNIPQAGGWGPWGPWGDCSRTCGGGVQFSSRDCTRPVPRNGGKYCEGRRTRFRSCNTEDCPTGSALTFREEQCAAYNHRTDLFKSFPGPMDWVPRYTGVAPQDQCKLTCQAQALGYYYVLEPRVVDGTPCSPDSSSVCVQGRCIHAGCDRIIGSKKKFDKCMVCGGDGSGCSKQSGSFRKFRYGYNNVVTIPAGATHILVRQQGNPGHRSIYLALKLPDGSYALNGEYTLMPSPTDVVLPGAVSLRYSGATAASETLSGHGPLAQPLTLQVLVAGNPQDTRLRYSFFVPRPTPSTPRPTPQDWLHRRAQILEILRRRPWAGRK
Procedure, shortened: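 Enzyme and compound incubated with aggrecan-containing polyacrylamide particles in Tris-HCl buffer at 37° C for 15 h. Released GAG in supernatant measured with 1,9-dimethylmethylene blue at 595 nm against chondroitin sulfate standard; % inhibition from enzyme-free and inhibitor-free wells, reported as TC50 (μM).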

MMP-1 = target: T2, MMP-1 (Homo sapiens, UniProt P03956); assay: MMP-1 inhibitory action (Type I collagen Activity Measurement kit, FITC-labeled collagen type I)
T2 sequence (P03956 100-469): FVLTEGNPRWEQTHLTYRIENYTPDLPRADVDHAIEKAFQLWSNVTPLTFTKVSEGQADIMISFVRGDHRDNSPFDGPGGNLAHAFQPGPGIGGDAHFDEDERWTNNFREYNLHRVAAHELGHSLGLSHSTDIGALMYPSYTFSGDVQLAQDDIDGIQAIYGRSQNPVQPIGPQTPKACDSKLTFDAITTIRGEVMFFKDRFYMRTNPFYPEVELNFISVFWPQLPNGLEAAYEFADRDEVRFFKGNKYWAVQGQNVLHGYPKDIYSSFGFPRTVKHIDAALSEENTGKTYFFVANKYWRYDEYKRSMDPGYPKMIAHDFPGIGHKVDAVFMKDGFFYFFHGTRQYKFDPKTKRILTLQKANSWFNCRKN

Recombinant Human MMP-13 = target: T3, Recombinant Human MMP-13 (Homo sapiens, UniProt P45452); assay: MMP-13 inhibitory activity (MMP-13 specific fluorescent substrate with quencher)
T3 construct: purchased R&D systems 511-MM
Procedure, shortened: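 Recombinant human MMP-13 with test compound, reaction started with quenched fluorogenic peptide 7-MCA-Pro-CHA-Gly-NVal-His-Ala-DPA in Tris-HCl buffer, 1 h at 25 °C, stopped with acetic acid. Fluorescence at Ex 325/Em 405 nm; % inhibition versus enzyme-free and inhibitor-free wells, reported as IC50 (μM).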

[1] = Experimental Example 1, read-out: IC50 AG1
[2] = Experimental Example 2, read-out: IC50 MMP1
[3] = Experimental Example 3, read-out: IC50 MMP13
[4] = aggrecanase-1 inhibitory action, read-out: IC50 AG1 (Experimental Example 1)
[5] = MMP-1 inhibitory action, FITC-labeled collagen type I, 37° C. for 3 hr, read-out: IC50 MMP1 (Experimental Example 2)
[6] = Recombinant Human MMP-13, fluorescent substrate, 25° C. for 1 h, read-out: IC50 MMP13 (Experimental Example 3)

IC50 (aggrecanase-1; [1]) [µM]	IC50 (MMP-1; [2]) [µM]	IC50 (Recombinant Human MMP-13; [3]) [µM]	IC50 (aggrecanase-1; [4]) [µM]	IC50 (MMP-1; [5]) [µM]	IC50 (Recombinant Human MMP-13; [6]) [µM]	Structure (SMILES)
< 1	≥ 1	< 1				O=C(NC[C@H]1CCCO1)OCC1(c2ccccc2)CC1(NS(=O)(=O)c1ccc(-c2cc(C(F)(F)F)on2)s1)C(=O)O (stereo partly drawn) [Example 2-309]
			< 1	≥ 1	< 1	O=C(O)C1(NS(=O)(=O)c2ccc(-c3ccc(Cl)c(Cl)c3)s2)CC1c1ccccc1 (stereo not drawn) [Example 2-18]
≥ 1	≥ 10	≥ 1				Cc1nc(-c2ccc(S(=O)(=O)N[C@@]3(C(=O)O)C(C)[C@@H]3c3ccccc3)s2)no1 (stereo partly drawn) [Example 2-451]
≥ 1	≥ 1	< 1				O=C1COCCN1CC1(c2ccccc2)CC1(NS(=O)(=O)c1ccc(-c2ccc(Cl)cc2)s1)C(=O)O (stereo not drawn) [Example 2-400]
			≥ 1	< 1	< 0.1	O=C(O)[C@]1(NS(=O)(=O)c2ccc(-c3cc(-c4ccccc4)on3)s2)C[C@@H]1c1ccccc1 [Example 2-114]
			< 0.1	≥ 1	< 0.1	O=C(OCCCc1ccccc1C1CC1(NS(=O)(=O)c1ccc(-c2cc(C(F)(F)F)on2)s1)C(=O)O)N1CCOCC1 (stereo not drawn) [Example 2-253]
< 1	≥ 10	< 0.1				CN1CCN(C(=O)CCc2ccc([C@H]3C[C@@]3(NS(=O)(=O)c3ccc(-c4cc(C(F)(F)F)on4)s3)C(=O)O)cc2)CC1 [Example 2-280]
< 1	≥ 1	< 0.1				CC1[C@H](c2ccccc2)[C@]1(NS(=O)(=O)N1CCN(c2ccc(Cl)cc2)CC1)C(=O)O (stereo partly drawn) [Example 2-426]
			< 1	≥ 1	< 0.1	O=C(O)C1(NS(=O)(=O)c2ccc(-c3ccc(Cl)cc3)cc2)CC1c1cccc(OCCn2ccnc2)c1 (stereo not drawn) [Example 1-83]
< 0.1	< 1	< 0.1				CC1[C@H](c2ccccc2)[C@]1(NS(=O)(=O)c1ccc(-c2cc3ccccc3[nH]2)s1)C(=O)O (stereo partly drawn) [Example 2-493]
< 0.1	< 0.1	< 0.1				CC1[C@H](c2ccccc2)[C@]1(NS(=O)(=O)c1ccc(-n2cc(CO)cn2)s1)C(=O)O (stereo partly drawn) [Example 2-561]
< 1	≥ 10	< 1				CC(C)C(=O)NCC1(c2ccccc2)CC1(NS(=O)(=O)c1ccc(-c2ccc(Cl)cc2)s1)C(=O)O (stereo not drawn) [Example 2-397]
< 0.1	≥ 1	< 0.1				CC1[C@H](c2ccccc2)[C@]1(NS(=O)(=O)c1ccc(-c2ccc(C(F)(F)F)cc2)s1)C(=O)O (stereo partly drawn) [Example 2-590]
			< 0.1	≥ 10	< 0.1	O=C(O)C1(NS(=O)(=O)c2ccc(-c3ccc(Cl)cc3)s2)CC1c1cccc(CCO)c1 (stereo not drawn) [Example 2-109]
≥ 1	≥ 10	≥ 1				O=C(O)C1(NS(=O)(=O)c2ccc(-c3cc(C(F)(F)F)on3)s2)CC1(CN1CCCCC1)c1ccccc1 (stereo not drawn) [Example 2-330]
			≥ 1	≥ 10	≥ 1	COCCN(C)Cc1ccccc1C1CC1(NS(=O)(=O)c1ccc(-c2ccc(Cl)cc2)s1)C(=O)O (stereo not drawn) [Example 2-89]
< 1	≥ 1	< 1				O=C(NCCO)OCC1(c2ccccc2)CC1(NS(=O)(=O)c1ccc(-c2cc(C(F)(F)F)on2)s1)C(=O)O (stereo not drawn) [Example 2-333]
≥ 1	≥ 10	≥ 1				CC(C)N1CCN(c2ccc(S(=O)(=O)N[C@@]3(C(=O)O)C[C@]3(C)c3ccccc3)s2)CC1 [Example 2-443]
< 0.1	≥ 1	< 0.1				O=C(O)C1(NS(=O)(=O)c2ccc(-c3ccc(Cl)cc3)s2)CC1c1cccc(NS(=O)(=O)N2CCOCC2)c1 (stereo not drawn) [Example 2-269]

IC50 (aggrecanase-1; [1]) [µM]	IC50 (MMP-1; [2]) [µM]	IC50 (Recombinant Human MMP-13; [3]) [µM]	IC50 (aggrecanase-1; [4]) [µM]	IC50 (MMP-1; [5]) [µM]	IC50 (Recombinant Human MMP-13; [6]) [µM]	Structure (SMILES)
≥ 1	≥ 1	< 1				CC(C)Nc1ccc2c(c1)CN(S(=O)(=O)N[C@@]1(C(=O)O)C(C)[C@@H]1c1ccccc1)C2 (stereo partly drawn) [Example 2-552]
			< 0.1	≥ 1	< 1	O=C(O)Cc1cccc(C2CC2(NS(=O)(=O)c2ccc(-c3cc(C(F)(F)F)on3)s2)C(=O)O)c1 (stereo not drawn) [Example 2-212]
< 0.1	< 1	< 0.1				CC1[C@H](c2ccccc2)[C@]1(NS(=O)(=O)c1ccc(-c2ccc(Cl)cc2F)s1)C(=O)O (stereo partly drawn) [Example 2-407]
			< 0.1	≥ 1	< 0.1	O=C(CCc1cccc(C2CC2(NS(=O)(=O)c2ccc(-c3cc(C(F)(F)F)on3)s2)C(=O)O)c1)N1CCOCC1 (stereo not drawn) [Example 2-234]
< 1	< 1	< 0.1				C[C@]1(c2ccccc2)C[C@@]1(NS(=O)(=O)c1ccc(-c2ccc(CO)cc2)s1)C(=O)O [Example 2-574]
			< 0.1	< 1	< 0.1	O=C(O)[C@]1(NS(=O)(=O)c2ccc(-c3cc4ccccc4s3)s2)C[C@@H]1c1ccccc1 [Example 2-113]
≥ 1	≥ 1	< 1				O=C(O)[C@]1(NS(=O)(=O)c2ccc(-n3cc(Cl)cn3)nc2)C[C@@H]1c1ccccc1 [Example 2-554]
			≥ 10	≥ 10	≥ 1	O=C(O)[C@]1(NS(=O)(=O)/C=C/c2ccc(Cl)cc2)C[C@@H]1c1ccccc1 [Example 2-151]
< 1	≥ 1	< 1				CC1[C@H](c2ccccc2)[C@]1(NS(=O)(=O)N1CCN(c2ccc(Cl)nn2)CC1)C(=O)O (stereo partly drawn) [Example 2-503]
< 0.1	< 1	< 0.1				CN(C)C(=O)CCc1ccc([C@H]2C[C@@]2(NS(=O)(=O)c2ccc(-c3cc(C(F)(F)F)on3)s2)C(=O)O)cc1 [Example 2-282]
			< 1	≥ 1	< 0.1	O=C(Nc1cccc(C2CC2(NS(=O)(=O)c2ccc(-c3ccc(Cl)cc3)cc2)C(=O)O)c1)c1cccnc1 (stereo not drawn) [Example 1-64]
			< 1	≥ 10	< 1	O=C(O)C1(NS(=O)(=O)c2ccc(-c3cc(C(F)(F)F)on3)s2)CC1c1cccc([N+](=O)[O-])c1 (stereo not drawn) [Example 2-199]
			≥ 10	≥ 10	≥ 1	CN1CC=C(c2ccc(S(=O)(=O)N[C@@]3(C(=O)O)C[C@@H]3c3ccccc3)s2)CC1 [Example 2-172]
			≥ 1	≥ 10	≥ 1	C=CC1CC1(NS(=O)(=O)c1ccc(-c2ccc(Cl)cc2)s1)C(=O)O (stereo not drawn) [Example 2-46]
			≥ 1	≥ 10	≥ 1	O=C(O)[C@]1(NS(=O)(=O)c2ccc(-c3noc(C(F)(F)C(F)(F)F)n3)s2)C[C@@H]1c1ccccc1 [Example 2-45]
			≥ 1	≥ 10	≥ 10	CC1(C)COC(c2ccc(S(=O)(=O)N[C@@]3(C(=O)O)C[C@@H]3c3ccccc3)s2)=N1 [Example 2-54]
< 1	≥ 1	< 1				CN(C)C(=O)NCC1(c2ccccc2)CC1(NS(=O)(=O)c1ccc(-c2ccc(Cl)cc2)s1)C(=O)O (stereo not drawn) [Example 2-378]
			≥ 1	≥ 10	≥ 10	CC(C)(C)OC(=O)N1CC=C(c2ccc(S(=O)(=O)N[C@@]3(C(=O)O)C[C@@H]3c3ccccc3)s2)CC1 [Example 2, 4-[5-((1S,2R)-1-carboxy-2-phenyl-cyclopropanesulfamoyl)-thiophene-2-yl]-3,6-dihydro-2H-pyridin-1-carboxylic acid t-butyl ester]
< 0.1	< 1	≥ 1				CC1(c2cccc(Cl)c2)CC1(NS(=O)(=O)c1ccc(-c2cc(C(F)(F)F)on2)s1)C(=O)O (stereo not drawn) [Example 2-612]
